Experiments:
HepG2 cells [1] = test: Confocal intracellular localization with MitoTracker; type: cell-based, human; conditions: HepG2, 5 μM, 24 hr
Experimental: HepG2 cells treated with each compound (5 μM, 24 hr) were co-stained with the mitochondrial marker MitoTracker (green). Boxed regions show co-localization of the test compounds and probe within the mitochondria. […] Experiments were carried out in triplicate and the data shown represent means±SD. **p<0.01. […] HepG2 cells were incubated with BNPP (100 μM) for 2 hr prior to C1 treatment. **p<0.01. […] Cleaved caspase-3 and PARP-1 levels were examined to assess apoptosis induction. C, cleaved.
Cells were seeded on glass chamber slides (Nalgene Nunc) followed by probe treatment. After 48 h, the cells were fixed with 4% formaldehyde, and blocked with 2% bovine serum albumin-PBS for 30 min. The mitochondria were stained using MitoTracker™ Green FM (Invitrogen, USA) for 30 min. Fluorescent images were obtained using a confocal laser scanning microscope (Carl Zeiss MicroImaging, Inc., Germany).

MCF7 cells = test: Colony formation assay; type: cell-based, human; conditions: 10 days
Experimental: (§1) Cells were seeded in 24 well plates at 2×10^5 cells per well and were allowed to adhere for at least 24 h, growth medium was replaced with medium containing C1 or its analogues at the indicated concentrations and times, and cell viability was assessed via the WST-1 assay (Roche Diagnostics, Laval, QC, Canada). For the colony formation assay, cells were seeded in 6-well plates. After 24 h, cells were maintained in the presence of each probe or vehicle dimethyl sulfoxide (DMSO) for 10 days. Colonies were fixed with methanol for 10 min and stained with 0.05% crystal violet in 20% ethanol.

MCF7/Dox cells [2] = test: Colony formation assay; type: cell-based, human; conditions: 10 days
Experimental: (§2) Fluorescence intensities were measured with SpectraMAX 13. Data represent means±SD. **p<0.01. […] Data represent means±SD. **[…]. […] Data represent the mean±SD (n=3 experimental replicates). *p<0.05, **p<0.01. […] MCF7/Dox cells were treated with C1 or C3 as indicated, and the cytosolic (C) and mitochondrial (M) fractions were subjected to immunoblot assay. COX-IV and tubulin were used as markers for the mitochondria and cytosol fractions, respectively.
as §1

[3] = system: MCF7/Dox xenograft tumors; test: Independent comparative xenograft study of C1-C4; type: in vivo, mice; conditions: n=5 per group, FIG. 23C
Excerpt: Tumors are shown (right). […] C1 injection led to a 58% reduction in tumor growth, which was statistically greater than the reductions seen in the case of C2 (16%), C3 (9%), C4 (6%) and DMSO (0%) tested under otherwise identical conditions.

MCF7/Dox cells [4] = test: Cell death assay, Annexin V flow cytometry; type: cell-based, human; conditions: 5 μM
Experimental: MCF-7/Dox cells (8×10^5 cells) were seeded in 60 mm dishes and cultured for 24 h. The cells were treated with 5 μM compound C1, C3, DCA and/or doxorubicin for 48 h. After washing and centrifugation, the harvested cells were stained with the Annexin V/PI Apoptosis Detection kit (BD Biosciences, USA) for 1 min at room temperature. The apoptotic cells were then quantified on a FACSCalibur™ flow cytometer and analyzed using the CELLQUEST™ software (BD Biosciences).

MCF7/Dox cells [5] = test: Cytochrome c release from mitochondria, immunoblot; type: cell-based, human
Experimental: as §2
Immunoblot analyses were performed using antibodies specific for phosphorylated serine 293 PDH-EI (ab92696), p21^Waf1 (sc-397), cleaved PARP (5625), cleaved caspase-3 (9664), COX-IV (4850), and Cytochrome c (4280). They were purchased from Abcam (Cambridge, UK), Santa Cruz Biotechnology (Texas, USA) or Cell Signaling Technology (Massachusetts, USA). Anti-tubulin antibodies were obtained from Sigma-Aldrich (St. Louis, USA). Briefly, cells were washed twice in ice-cold PBS and lysed in a radioimmunoprecipitation assay buffer containing 50 mM Tris/HCl (pH 7.5), 150 mM NaCl, 0.1% sodium dodecyl sulfate (SDS), 1% Triton X-100, 1% sodium deoxycholate, and protease inhibitor mixture. After sonification, the lysate was centrifuged, and the supernatant was recovered and loaded onto a 12% SDS-polyacrylamide gel for electrophoresis. […]

MCF7/Dox cells [6] = test: Cell viability, C1 versus Dox+DCA; type: cell-based, human; conditions: resistant MCF7/Dox cells
Experimental: as §1, with “Data represent the mean±SD. *p<0.05. […] Cells” for “Cells”

MCF7 cell line = test: Cell viability, C1 versus Dox+DCA; type: cell-based, human
Experimental: as §1, with “Data represent the mean±SD. *p<0.05. […] Cells” for “Cells”

MCF7/Dox cells [7] = test: Assessment of mitochondrial membrane potential (CLSM); type: cell-based, human; conditions: 5 μM, 48 h
Experimental: To assess the mitochondrial membrane potential, MCF-7/Dox cells (5×10^3 cells) were seeded in glass-bottomed dishes and treated with 5 μM compound C1, C3, DCA, and/or doxorubicin for 48 h. After incubation, the cells were stained with 2 ml of a PBS solution containing 20 μM Mitoview™ 633 (Biotium, USA) and 100 nM Hoechst® 33342 (ThermoFisher, USA) for 30 min at 37° C. with 5% CO2. Fluorescence was detected using a Zeiss LSM 700 confocal laser scanning microscope (Carl Zeiss).

[8] = Cell fractionation assay, mitochondria-to-nucleus trafficking; type: cell-based; conditions: after treatment with C1
Experimental: as §2
Separation of cytosolic and mitochondrial fractions was performed using the Mitochondria Isolation Kit (Thermo Scientific, USA). Briefly, the cells were washed with cold PBS and lysed by 5-cycle freeze-thawing in Mitochondria Isolation Reagent A buffer, containing 10 mM phenylmethylsulfonyl fluoride (PMSF). After incubation on ice for 10 min and the addition of Mitochondria Isolation Reagent B buffer, the lysates were centrifuged at 700×g for 10 min following inverting by treating with Mitochondria Isolation Reagent C buffer. The supernatant was transferred to a new tube, centrifuged at 12 000×g for 15 min at 4° C., and collected as the cytosolic fraction. After adding […] of Mitochondria Isolation Reagent C, the pellet was centrifuged at 12 000×g for 5 min and collected as the mitochondrial fraction.

HepG2 cells [9] = test: Immunoblot assay of cleaved caspase-3 and PARP-1; type: cell-based, human
Experimental: Immunoblot analyses were performed using antibodies specific for phosphorylated serine 293 PDH-EI (ab92696), p21^Waf1 (sc-397), cleaved PARP (5625), cleaved caspase-3 (9664), COX-IV (4850), and Cytochrome c (4280). They were purchased from Abcam (Cambridge, UK), Santa Cruz Biotechnology (Texas, USA) or Cell Signaling Technology (Massachusetts, USA). Anti-tubulin antibodies were obtained from Sigma-Aldrich (St. Louis, USA). Briefly, cells were washed twice in ice-cold PBS and lysed in a radioimmunoprecipitation assay buffer containing 50 mM Tris/HCl (pH 7.5), 150 mM NaCl, 0.1% sodium dodecyl sulfate (SDS), 1% Triton X-100, 1% sodium deoxycholate, and protease inhibitor mixture. After sonification, the lysate was centrifuged, and the supernatant was recovered and loaded onto a 12% SDS-polyacrylamide gel for electrophoresis.

MCF7 and MCF7/Dox cells = test: Mitochondrial localization in MCF7 and MCF7/Dox cells; type: cell-based, human
Excerpt: Mito-tracker (green) was utilized to show the mitochondria;

COc1cccc2c1C(=O)c1c(O)c3c(c(O)c1C2=O)C[C@@](O)(C(=O)CO)C[C@@H]3OC1C[C@H](NC(=O)OC(Cc2cn(CCCCCC[P+](c3ccccc3)(c3ccccc3)c3ccccc3)nn2)c2ccc(NC(=O)C(Cl)Cl)cc2)[C@H](O)[C@H](C)O1.[Br-] (stereo partly drawn) [C1]
intracellular (mitochondrial) localization (HepG2 cells [1]): located predominantly within the mitochondria | colony-forming ability (MCF7 cells): strong inhibitory effect | colony-forming ability (MCF7/Dox cells [2]): strong inhibitory effect | reduction in tumor growth [3]: 58% | apoptosis by Annexin V flow cytometry (MCF7/Dox cells [4]): promotes both early and late apoptosis | cytochrome c release, cleavage of caspase-3 and PARP-1, decrease in cell viability (MCF7/Dox cells [5]): induces cytochrome c release from the mitochondria | cytotoxic effect (MCF7/Dox cells [6]): appreciable cytotoxic effect | reduction in cell viability (MCF7 cell line): comparable reduction in cell viability | decrease in mitochondrial membrane potential Δψm (MCF7/Dox cells [7]): ca. 96% | time for released Dox to translocate to the nucleus [8]: approximately 2 hr | apoptosis-inducing activity (cleaved caspase-3 and PARP-1) (HepG2 cells [9]): greater apoptosis-inducing activity than C2 | mitochondrial localization (MCF7 and MCF7/Dox cells): exhibited mitochondrial localization in both MCF7 and MCF7/Dox cells

— US11241501B2, “Anticancer prodrug for overcoming drug resistance” (Korea University Research and Business Foundation, priority 2018, dated 2022)
